Test results as given in ChEMBL document CHEMBL5729293, “Inhibitors of KEAP1-Nrf2 protein-protein interaction” (2022).

Assay: Fluorescence Based Assay: The details of the KEAP1 KELCH ThermoFluor® Assay Construct are as follows: Kelch domain of human KEAP 1 (321-624 aa) was used in the assay. The protein was expressed in E. coli with 6His tag that was cleaved prior to receipt for use.ThermoFluor® experiments were carried out using instruments owned by Janssen Research and Discovery, L.L.C. through its acquisition of 3-Dimensional Pharmaceuticals, Inc. 1,8-ANS (Invitrogen) was used as a fluorescent dye. Protein (KEAP Kelch) and compound solutions were dispensed into black 384-well polypropylene PCR microplates (Abgene) and overlayed with silicone oil (1 μL, Fluka, type DC 200) to prevent evaporation.Reference wells contained KEAP Kelch without compounds, and the assay conditions were as follows: 1.1 μM (0.037mg/mL) KEAP Kelch, 80 μM 1,8-ANS, 25 mM PIPES, pH 7.0, 100 mM NaCl, 0.002% Tween-20.

Compound	Kd [nM]
Cc1ccc([C@H](CC(=O)O)c2ccn3c(C(F)(F)F)nnc3c2C)cc1CN1CC2(CC2)Oc2ncc(C#N)cc2S1(=O)=O	< 1
Cc1ccc([C@@H](CC(=O)O)c2ccn3c(C(F)(F)F)nnc3c2C)cc1CN1C[C@@H]2CCCCN2c2ncccc2S1(=O)=O	< 1
Cc1ccc([C@H](CC(=O)O)c2ccc3c(nnn3C3CC3)c2C)cc1CN1C[C@H]2CCCN2c2ncccc2S1(=O)=O	< 1
CCn1nnc2c(C)c(C(CC(=O)O)c3ccc(C)c(CN4C[C@H]5CCCN5c5ncccc5S4(=O)=O)n3)ccc21 (stereo not given in full)	< 1
Cc1ccc([C@@H](CC(=O)O)c2ccn3c(C(F)(F)F)nnc3c2C)cc1CN1C[C@H]2CCCN2c2ccccc2S1(=O)=O	< 1
Cc1ccc(C(CC(=O)O)c2ccn3c(C(F)(F)F)nnc3c2C)cc1CN1CC(C)(C)Oc2ncccc2S1(=O)=O (stereo not given)	< 1
Cc1ccc(C(CC(=O)O)c2ccn3c(C(F)(F)F)nnc3c2C)cc1CN1C[C@H]2CCCN2c2ncccc2S1(=O)=O (stereo not given in full)	< 1
Cc1ccc([C@@H](CC(=O)O)c2ccn3c(C(F)(F)F)nnc3c2C)cc1CN1CC2(COC2)Oc2ccccc2S1(=O)=O	< 1
Cc1ccc([C@H](CC(=O)O)c2ccn3c(C(F)(F)F)nnc3c2C)cc1CN1C[C@H]2CCCCN2c2ncccc2S1(=O)=O	< 1
Cc1ccc(C(CC(=O)O)c2ccn3c(C(F)(F)F)nnc3c2)cc1CN1C[C@@H]2CCCN2c2ncccc2S1(=O)=O (stereo not given in full)	< 1
Cc1ccc([C@@H](CC(=O)O)c2ccc3c(nnn3CC3CC3)c2C)cc1CN1C[C@H]2CCCCN2c2ncccc2S1(=O)=O	< 1
CC[C@@H]1CN(Cc2cc([C@@H](CC(=O)O)c3ccn4c(C(F)(F)F)nnc4c3C)ccc2C)S(=O)(=O)c2cccnc2O1	< 1
Cc1ccc([C@H](CC(=O)O)c2ccn3c(C(F)(F)F)nnc3c2C)cc1CN1CC2(CC2)Oc2ncc(Cl)cc2S1(=O)=O	< 1
Cc1ccc(C(CC(=O)O)c2ccn3c(C(F)(F)F)nnc3c2C)cc1CN1C[C@@H]2CCCCN2c2ncccc2S1(=O)=O (stereo not given in full)	< 1
CCn1nnc2c(C)c(C(CC(=O)O)c3ccc(C)c(CN4CC5(COC5)Oc5ncccc5S4(=O)=O)n3)ccc21 (stereo not given)	< 1
Cc1ccc([C@@H](CC(=O)O)c2ccn3c(C(F)(F)F)nnc3c2C)cc1CN1CC2(COC2)Oc2ncccc2S1(=O)=O	< 1
Cc1ccc([C@H](CC(=O)O)c2ccc3c(nnn3CC3CC3)c2C)cc1CN1C[C@@H]2CCCCN2c2ncccc2S1(=O)=O	< 1
Cc1ccc(C(CC(=O)O)c2cc(OC(F)F)c3c(c2)nnn3C)cc1CN1C[C@H]2CCCN2c2ncccc2S1(=O)=O (stereo not given in full)	< 1
Cc1ccc([C@H](CC(=O)O)c2ccn3c(C(F)(F)F)nnc3c2C)cc1CN1CC(C)(C)Oc2ncccc2S1(=O)=O	< 1
Cc1ccc([C@@H](CC(=O)O)c2ccc3c(nnn3C3CC3)c2C)cc1CN1C[C@]2(C)CCCN2c2ncccc2S1(=O)=O	< 1
CCn1nnc2c(C)c([C@H](CC(=O)O)c3ccc(C)c(CN4C[C@H]5CCCN5c5ncccc5S4(=O)=O)n3)ccc21	< 1
Cc1cnc2c(c1)S(=O)(=O)N(Cc1cc([C@H](CC(=O)O)c3ccn4c(C(F)(F)F)nnc4c3C)ccc1C)CC1(CCOCC1)O2	< 1
Cc1cnc2c(c1)S(=O)(=O)N(Cc1cc(C(c3ccc4c(nnn4C4CC4)c3C)C(C)(C)C(=O)O)cnc1C)CC1(CCOCC1)O2 (stereo not given)	< 1
Cc1ccc(C(CC(=O)O)c2ccn3c(C(F)(F)F)nnc3c2C)cc1CN1C[C@H]2CCCCN2c2ncccc2S1(=O)=O (stereo not given in full)	< 1

Compound	Kd [nM]
Cc1ccc([C@H](CC(=O)O)c2ccn3c(C(F)(F)F)nnc3c2C)cc1CN1C[C@H]2CCCN2c2ccccc2S1(=O)=O	< 1
CC[C@@H]1CN(Cc2cc(C(CC(=O)O)c3ccn4c(C(F)(F)F)nnc4c3C)ccc2C)S(=O)(=O)c2cccnc2O1 (stereo not given in full)	< 1
Cc1ccc(C(CC(=O)O)c2ccc3c(nnn3C3CC3)c2C)cc1CN1CC2(COC2)Oc2ccccc2S1(=O)=O (stereo not given)	< 1
CC[C@@H]1CN(Cc2cc([C@H](CC(=O)O)c3ccn4c(C(F)(F)F)nnc4c3C)ccc2C)S(=O)(=O)c2cccnc2O1	< 1
Cc1ccc(C(CC(=O)O)c2ccc3c(nnn3C3CC3)c2C)cc1CN1C[C@H]2CCCN2c2ncccc2S1(=O)=O (stereo not given in full)	< 1
CC[C@@H]1CN(Cc2cc(C(CC(=O)O)c3cc(OC(F)F)c4c(c3)nnn4C)ccc2C)S(=O)(=O)c2cccnc2O1 (stereo not given in full)	< 1
Cc1ccc([C@@H](CC(=O)O)c2ccn3c(C(F)(F)F)nnc3c2C)cc1CN1C[C@H]2CCCCN2c2ncccc2S1(=O)=O	< 1
CCc1nnc2c(C)c([C@H](CC(=O)O)c3ccc(C)c(CN4C[C@H]5CCCN5c5ccccc5S4(=O)=O)c3)ccn12	< 1
Cc1ccc(C(CC(=O)O)c2ccc3c(nnn3C3CC3)c2C)cc1CN1C[C@]2(C)CCCN2c2ncccc2S1(=O)=O (stereo not given in full)	< 1
CC[C@@H]1CN(Cc2cc([C@H](CC(=O)O)c3ccn4c(C(F)(F)F)nnc4c3)ccc2C)S(=O)(=O)c2cccnc2O1	< 1
Cc1ccc([C@H](CC(=O)O)c2ccn3c(C(F)(F)F)nnc3c2C)cc1CN1C[C@H]2COCCN2c2ncc(Cl)cc2S1(=O)=O	< 1
Cc1ccc([C@H](CC(=O)O)c2ccn3c(C(F)(F)F)nnc3c2C)cc1CN1C[C@H]2COCCN2c2ncc(C#N)cc2S1(=O)=O	< 1
Cc1ccc([C@H](CC(=O)O)c2ccn3c(C(F)(F)F)nnc3c2)cc1CN1C[C@@H]2CCCN2c2ncccc2S1(=O)=O	< 1
Cc1ccc(C(CC(=O)O)c2ccc3c(nnn3CC3CC3)c2C)cc1CN1C[C@H]2CCCCN2c2ncccc2S1(=O)=O (stereo not given in full)	< 1
Cc1ccc([C@@H](CC(=O)O)c2cc(OC(F)F)c3c(c2)nnn3C)cc1CN1C[C@H]2CCCN2c2ncccc2S1(=O)=O	< 1
CCn1nnc2c(C)c(C(CC(=O)O)c3ccc(C)c(CN4CC5(CC5)Oc5ncccc5S4(=O)=O)n3)ccc21 (stereo not given)	< 1
Cc1ccc([C@H](CC(=O)O)c2ccc3c(nnn3C3CC3)c2C)cc1CN1CC2(COC2)Oc2ccccc2S1(=O)=O	< 1
Cc1ccc([C@H](CC(=O)O)c2ccn3c(C4CC4)nnc3c2C)cc1CN1CC2(CC2)Oc2ncc(F)cc2S1(=O)=O	< 1
Cc1ccc([C@@H](CC(=O)O)c2ccn3c(C(F)(F)F)nnc3c2)cc1CN1C[C@@H]2CCCN2c2ncccc2S1(=O)=O	< 1
Cc1ccc([C@H](CC(=O)O)c2ccn3c(C(F)(F)F)nnc3c2C)cc1CN1CC2(COC2)Oc2ncccc2S1(=O)=O	< 1
CC[C@@H]1CN(Cc2cc(C(CC(=O)O)c3ccn4c(C(F)(F)F)nnc4c3)ccc2C)S(=O)(=O)c2cccnc2O1 (stereo not given in full)	< 1
Cc1ccc([C@H](CC(=O)O)c2ccc3c(nnn3C3CC3)c2C)cc1CN1C[C@H]2CCCCN2c2ncccc2S1(=O)=O	< 1
Cc1ccc([C@@H](CC(=O)O)c2ccn3c(C(F)(F)F)nnc3c2C)cc1CN1C[C@]2(C)CCCN2c2ncccc2S1(=O)=O	< 1
Cc1ccc([C@H](CC(=O)O)c2ccn3c(C(F)(F)F)nnc3c2C)cc1CN1C[C@@H]2CCCCN2c2ncc(Cl)cc2S1(=O)=O	< 1

Compound	Kd [nM]
Cc1ccc([C@H](CC(=O)O)c2ccn3c(C(F)(F)F)nnc3c2C)cc1CN1C[C@@H]2CCCCN2c2ncccc2S1(=O)=O	< 1
CCn1nnc2c(C)c(C(CC(=O)O)c3ccc(C)c(CN4CC5(COC5)Oc5ncccc5S4(=O)=O)c3)ccc21 (stereo not given)	< 1
Cc1ccc(C(CC(=O)O)c2ccc3c(nnn3C3CC3)c2C)cc1CN1C[C@@H]2CCCCN2c2ccccc2S1(=O)=O (stereo not given in full)	< 1
Cc1ccc(C(CC(=O)O)c2ccc3c(nnn3CC3CC3)c2C)cc1CN1C[C@@H]2CCCCN2c2ncccc2S1(=O)=O (stereo not given in full)	< 1
Cc1ccc([C@H](CC(=O)O)c2ccn3c(C(F)(F)F)nnc3c2C)cc1CN1C[C@H]2CCCN2c2ncc(C#N)cc2S1(=O)=O	< 1
Cc1ccc(C(CC(=O)O)c2ccn3c(C(F)(F)F)nnc3c2C)cc1CN1CC2(COC2)Oc2ccccc2S1(=O)=O (stereo not given)	< 1
CC[C@@H]1CN(Cc2cc([C@H](CC(=O)O)c3cc(OC(F)F)c4c(c3)nnn4C)ccc2C)S(=O)(=O)c2cccnc2O1	< 1
CCn1nnc2c(C)c([C@@H](CC(=O)O)c3ccc(C)c(CN4CC5(CC5)Oc5ncccc5S4(=O)=O)n3)ccc21	< 1
Cc1ccc([C@@H](CC(=O)O)c2ccc3c(nnn3C3CC3)c2C)cc1CN1C[C@H]2CCCCN2c2ncccc2S1(=O)=O	< 1
Cc1ccc(C(CC(=O)O)c2ccn3c(C(F)(F)F)nnc3c2C)cc1CN1C[C@H]2CCCN2c2ccccc2S1(=O)=O (stereo not given in full)	< 1
CCn1nnc2c(C)c([C@H](CC(=O)O)c3ccc(C)c(CN4CC5(CC5)Oc5ncccc5S4(=O)=O)n3)ccc21	< 1
CC[C@@H]1CN(Cc2cc([C@@H](CC(=O)O)c3cc(OC(F)F)c4c(c3)nnn4C)ccc2C)S(=O)(=O)c2cccnc2O1	< 1
Cc1ccc([C@H](CC(=O)O)c2ccn3c(C(F)(F)F)nnc3c2C)cc1CN1C[C@@H]2CCN2c2ncccc2S1(=O)=O	< 1
Cc1ccc([C@@H](CC(=O)O)c2ccc3c(nnn3CC3CC3)c2C)cc1CN1C[C@@H]2CCCCN2c2ncccc2S1(=O)=O	< 1
Cc1ccc(C(CC(=O)O)c2ccn3c(C(F)(F)F)nnc3c2C)cc1CN1CC2(COC2)Oc2ncccc2S1(=O)=O (stereo not given)	< 1
CCn1nnc2c(C)c([C@H](CC(=O)O)c3ccc(C)c(CN4CC5(COC5)Oc5ccccc5S4(=O)=O)n3)ccc21	< 1
Cc1ccc([C@H](CC(=O)O)c2ccc3c(nnn3CC3CC3)c2C)cc1CN1C[C@H]2CCCCN2c2ncccc2S1(=O)=O	< 1
CCc1nnc2c(C)c([C@@H](CC(=O)O)c3ccc(C)c(CN4C[C@H]5CCCN5c5ncccc5S4(=O)=O)c3)ccn12	< 1
Cc1cnc2c(c1)S(=O)(=O)N(Cc1cc([C@H](c3ccc4c(nnn4C4CC4)c3C)C(C)(C)C(=O)O)cnc1C)CC1(CCOCC1)O2	< 1
Cc1ccc([C@H](CC(=O)O)c2ccn3c(C(F)(F)F)nnc3c2C)cc1CN1C[C@H]2CCCCN2c2nc(C(N)=O)ccc2S1(=O)=O	< 1
CCc1nnc2c(C)c(C(CC(=O)O)c3ccc(C)c(CN4C[C@H]5CCCN5c5ncccc5S4(=O)=O)c3)ccn12 (stereo not given in full)	< 1
CCn1nnc2c(C)c([C@H](CC(=O)O)c3ccc(C)c(CN4CC5(COC5)Oc5ncccc5S4(=O)=O)n3)ccc21	< 1
